Data from ChEMBL document CHEMBL1126058, “Development of potent and selective CCK-A receptor agonists from Boc-CCK-4: tetrapeptides containing Lys(N epsilon)-amide residues” (J Med Chem, 1992).
Where a SMILES comes first, the peptide text is derived from it. [ ]: non-standard residue; d: D form. The star is where a group is joined. Hydrocinnamoyl(4-OSO3H) = O=C(CCc1ccc(OS(=O)(=O)O)cc1)*; Propanoyl(3-(4-MeO-Ph)) = COc1ccc(CCC(=O)*)cc1; Propanoyl(3-(4-Cl-Ph)) = O=C(CCc1ccc(Cl)cc1)*; 2Naphthoyl(6-OH) = O=C(c1ccc2cc(O)ccc2c1)*; X13 = O=C(c1ccc2cc(OS(=O)(=O)O)ccc2c1)*; X15 = O=C(/C=C\c1ccc(C(F)(F)F)cc1)*; X20 = CC(=O)Oc1ccc2cc(C(=O)*)ccc2c1; 1Naphthoyl = O=C(c1cccc2ccccc12)*; 2Naphthoyl = O=C(c1ccc2ccccc2c1)*; Hydrocinnamoyl = O=C(CCc1ccccc1)*; X17 = COc1ccc(/C=C\C(=O)*)c(OC)c1; X24 = O=C(/C=C/c1c[nH]c2ccccc12)*; NMeF = CN[C@@H](Cc1ccccc1)C(=O)O; X14 = O=C(c1cc2cc(O)ccc2[nH]1)*; X2 = O=C(c1cc2cc(Cl)ccc2[nH]1)*; X31 = COc1ccc(/C=C\C(=O)*)cc1OC; X7 = CN(C)c1ccc(/C=C\C(=O)*)cc1; X8 = COc1ccc2[nH]c(C(=O)*)cc2c1; X12 = O=C(c1cnc2cccc(O)c2c1)*; X25 = COc1ccc(/C=C\C(=O)*)cc1; X33 = O=C(/C=C/c1ccc(Cl)cc1)*; X11 = O=C(/C=C\c1ccc(O)cc1)*; X29 = O=C(/C=C\c1cccc(O)c1)*; X32 = Cc1ccc(/C=C\C(=O)*)cc1; X16 = O=C(/C=C\c1ccccc1O)*; X19 = O=C(/C=C\c1ccccc1)*; Boc = CC(C)(C)OC(=O)*

What was measured:
[1] = target: T1, Cholecystokinin receptor type A (Cavia porcellus, UniProt Q63931); assay: Inhibition of specific binding of [125I]BH-CCK-8 in guinea pig pancreas.
T1 sequence (Q63931 whole entry): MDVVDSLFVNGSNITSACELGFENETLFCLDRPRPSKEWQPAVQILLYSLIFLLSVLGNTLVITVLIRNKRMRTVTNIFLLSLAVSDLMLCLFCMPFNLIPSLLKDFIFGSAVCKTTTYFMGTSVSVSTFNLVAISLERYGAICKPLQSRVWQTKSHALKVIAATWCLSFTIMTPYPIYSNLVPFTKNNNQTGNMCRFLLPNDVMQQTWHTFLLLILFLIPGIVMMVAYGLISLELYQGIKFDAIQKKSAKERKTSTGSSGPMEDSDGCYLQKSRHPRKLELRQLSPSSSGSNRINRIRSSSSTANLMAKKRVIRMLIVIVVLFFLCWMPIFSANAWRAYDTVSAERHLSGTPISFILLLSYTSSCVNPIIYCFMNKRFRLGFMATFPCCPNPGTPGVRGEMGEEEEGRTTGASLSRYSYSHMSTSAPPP

[2] = species: Cavia porcellus; assay: Hydrolysis of phosphoinositide (PI) relative to maximal response elicited by CCK-8 in guinea pig pancreas.; type: functional
[3] = species: Cavia porcellus; assay: Stimulation of amylase release in guinea pig pancreas; type: functional

| Structure (SMILES) | IC50 [1] [µM] | EC50 [3] [µM] | Max [2] [%] |
| --- | --- | --- | --- |
| CC(C)(C)OC(=O)N[C@@H](Cc1c[nH]c2ccccc12)C(=O)N[C@@H](CCCCNC(=O)CCc1ccc(OS(=O)(=O)O)cc1)C(=O)N[C@@H](CC(=O)O)C(=O)N[C@@H](Cc1ccccc1)C(N)=O (Boc-WK(Hydrocinnamoyl(4-OSO3H))DF-NH2) | 0.076 | 0.098 | 68 |
| CC(C)(C)OC(=O)N[C@@H](Cc1c[nH]c2ccccc12)C(=O)N[C@@H](CCCCNC(=O)/C=C\c1ccc(C(F)(F)F)cc1)C(=O)N[C@@H](CC(=O)O)C(=O)N[C@@H](Cc1ccccc1)C(N)=O (Boc-WK(X15)DF-NH2) | 0.22 | 0.055 | 60 |
| COc1ccc2[nH]c(C(=O)NCCCC[C@H](NC(=O)[C@H](Cc3c[nH]c4ccccc34)NC(=O)OC(C)(C)C)C(=O)N[C@@H](CC(=O)O)C(=O)N[C@@H](Cc3ccccc3)C(N)=O)cc2c1 (Boc-WK(X8)DF-NH2) | 0.052 | 0.016 | 21 |
| CC(C)(C)OC(=O)N[C@@H](Cc1c[nH]c2ccccc12)C(=O)N[C@@H](CCCCNC(=O)/C=C\c1cccc(O)c1)C(=O)N[C@@H](CC(=O)O)C(=O)N[C@@H](Cc1ccccc1)C(N)=O (Boc-WK(X29)DF-NH2) | 0.022 | 0.059 | 54 |
| CC(C)(C)OC(=O)N[C@@H](Cc1c[nH]c2ccccc12)C(=O)N[C@@H](CCCCNC(=O)c1cccc2ccccc12)C(=O)N[C@@H](CC(=O)O)C(=O)N[C@@H](Cc1ccccc1)C(N)=O (Boc-WK(1Naphthoyl)DF-NH2) | 0.057 | 0.079 | 61 |
| CC(=O)Oc1ccc2cc(C(=O)NCCCC[C@H](NC(=O)[C@H](Cc3c[nH]c4ccccc34)NC(=O)OC(C)(C)C)C(=O)N[C@@H](CC(=O)O)C(=O)N(C)[C@@H](Cc3ccccc3)C(N)=O)ccc2c1 (Boc-WK(X20)D[NMeF]-NH2) | 0.0034 | 0.029 | 58 |
| Cc1ccc(/C=C\C(=O)NCCCC[C@H](NC(=O)[C@H](Cc2c[nH]c3ccccc23)NC(=O)OC(C)(C)C)C(=O)N[C@@H](CC(=O)O)C(=O)N[C@@H](Cc2ccccc2)C(N)=O)cc1 (Boc-WK(X32)DF-NH2) | 0.071 | 0.052 | 71 |
| COc1ccc(/C=C\C(=O)NCCCC[C@H](NC(=O)[C@H](Cc2c[nH]c3ccccc23)NC(=O)OC(C)(C)C)C(=O)N[C@@H](CC(=O)O)C(=O)N[C@@H](Cc2ccccc2)C(N)=O)c(OC)c1 (Boc-WK(X17)DF-NH2) | 0.038 | 0.014 | 82 |
| COc1ccc(CCC(=O)NCCCC[C@H](NC(=O)[C@H](Cc2c[nH]c3ccccc23)NC(=O)OC(C)(C)C)C(=O)N[C@@H](CC(=O)O)C(=O)N[C@@H](Cc2ccccc2)C(N)=O)cc1 (Boc-WK(Propanoyl(3-(4-MeO-Ph)))DF-NH2) | 0.14 | 0.074 | 70 |
| CC(C)(C)OC(=O)N[C@@H](Cc1c[nH]c2ccccc12)C(=O)N[C@@H](CCCCNC(=O)CCc1ccc(Cl)cc1)C(=O)N[C@@H](CC(=O)O)C(=O)N[C@@H](Cc1ccccc1)C(N)=O (Boc-WK(Propanoyl(3-(4-Cl-Ph)))DF-NH2) | 0.41 | 0.17 | 51 |
| CC(C)(C)OC(=O)N[C@@H](Cc1c[nH]c2ccccc12)C(=O)N[C@@H](CCCCNC(=O)/C=C\c1ccccc1O)C(=O)N[C@@H](CC(=O)O)C(=O)N[C@@H](Cc1ccccc1)C(N)=O (Boc-WK(X16)DF-NH2) | 0.11 | 0.21 | 54 |
| CC(C)(C)OC(=O)N[C@@H](Cc1c[nH]c2ccccc12)C(=O)N[C@@H](CCCCNC(=O)c1cc2cc(O)ccc2[nH]1)C(=O)N[C@@H](CC(=O)O)C(=O)N[C@@H](Cc1ccccc1)C(N)=O (Boc-WK(X14)DF-NH2) | 0.014 | 0.068 | 23 |

Continued by falling IC50 [1], values first:

| IC50 [1] [µM] | EC50 [3] [µM] | Structure (SMILES) | Max [2] [%] |
| --- | --- | --- | --- |
| 0.31 | 0.85 | CC(C)(C)OC(=O)N[C@@H](Cc1c[nH]c2ccccc12)C(=O)N[C@@H](CCCCNC(=O)CCc1ccccc1)C(=O)N[C@@H](CC(=O)O)C(=O)N[C@@H](Cc1ccccc1)C(N)=O (Boc-WK(Hydrocinnamoyl)DF-NH2) | 49 |
| 0.12 | 0.017 | CN(C)c1ccc(/C=C\C(=O)NCCCC[C@H](NC(=O)[C@H](Cc2c[nH]c3ccccc23)NC(=O)OC(C)(C)C)C(=O)N[C@@H](CC(=O)O)C(=O)N[C@@H](Cc2ccccc2)C(N)=O)cc1 (Boc-WK(X7)DF-NH2) | 49 |
| 0.11 | 0.062 | CC(C)(C)OC(=O)N[C@@H](Cc1c[nH]c2ccccc12)C(=O)N[C@@H](CCCCNC(=O)c1cc2cc(Cl)ccc2[nH]1)C(=O)N[C@@H](CC(=O)O)C(=O)N[C@@H](Cc1ccccc1)C(N)=O (Boc-WK(X2)DF-NH2) | 27 |
| 0.055 | 0.03 | CC(C)(C)OC(=O)N[C@@H](Cc1c[nH]c2ccccc12)C(=O)N[C@@H](CCCCNC(=O)/C=C\c1ccccc1)C(=O)N[C@@H](CC(=O)O)C(=O)N[C@@H](Cc1ccccc1)C(N)=O (Boc-WK(X19)DF-NH2) | 52 |
| 0.04 | 0.017 | COc1ccc(/C=C\C(=O)NCCCC[C@H](NC(=O)[C@H](Cc2c[nH]c3ccccc23)NC(=O)OC(C)(C)C)C(=O)N[C@@H](CC(=O)O)C(=O)N[C@@H](Cc2ccccc2)C(N)=O)cc1OC (Boc-WK(X31)DF-NH2) | 61 |
| 0.03 | 0.02 | COc1ccc(/C=C\C(=O)NCCCC[C@H](NC(=O)[C@H](Cc2c[nH]c3ccccc23)NC(=O)OC(C)(C)C)C(=O)N[C@@H](CC(=O)O)C(=O)N[C@@H](Cc2ccccc2)C(N)=O)cc1 (Boc-WK(X25)DF-NH2) | 72 |
| 0.019 | 0.03 | CC(C)(C)OC(=O)N[C@@H](Cc1c[nH]c2ccccc12)C(=O)N[C@@H](CCCCNC(=O)/C=C/c1c[nH]c2ccccc12)C(=O)N[C@@H](CC(=O)O)C(=O)N[C@@H](Cc1ccccc1)C(N)=O (Boc-WK(X24)DF-NH2) | 55 |
| 0.016 | 0.0039 | CC(C)(C)OC(=O)N[C@@H](Cc1c[nH]c2ccccc12)C(=O)N[C@@H](CCCCNC(=O)/C=C\c1ccc(O)cc1)C(=O)N[C@@H](CC(=O)O)C(=O)N[C@@H](Cc1ccccc1)C(N)=O (Boc-WK(X11)DF-NH2) | 76 |
| 0.015 | 0.0086 | CN(C(=O)[C@H](CC(=O)O)NC(=O)[C@H](CCCCNC(=O)/C=C/c1ccc(Cl)cc1)NC(=O)[C@H](Cc1c[nH]c2ccccc12)NC(=O)OC(C)(C)C)[C@@H](Cc1ccccc1)C(N)=O (Boc-WK(X33)D[NMeF]-NH2) | 68 |
| 0.014 | 0.004 | CC(C)(C)OC(=O)N[C@@H](Cc1c[nH]c2ccccc12)C(=O)N[C@@H](CCCCNC(=O)c1ccc2ccccc2c1)C(=O)N[C@@H](CC(=O)O)C(=O)N[C@@H](Cc1ccccc1)C(N)=O (Boc-WK(2Naphthoyl)DF-NH2) | 36 |
| 0.0077 | 0.0023 | CC(C)(C)OC(=O)N[C@@H](Cc1c[nH]c2ccccc12)C(=O)N[C@@H](CCCCNC(=O)c1cnc2cccc(O)c2c1)C(=O)N[C@@H](CC(=O)O)C(=O)N[C@@H](Cc1ccccc1)C(N)=O (Boc-WK(X12)DF-NH2) | 45 |
| 0.0038 | 0.0024 | CN(C(=O)[C@H](CC(=O)O)NC(=O)[C@H](CCCCNC(=O)c1ccc2cc(O)ccc2c1)NC(=O)[C@H](Cc1c[nH]c2ccccc12)NC(=O)OC(C)(C)C)[C@@H](Cc1ccccc1)C(N)=O (Boc-WK(2Naphthoyl(6-OH))D[NMeF]-NH2) | 52 |
| 0.0029 | 0.0035 | CC(C)(C)OC(=O)N[C@@H](Cc1c[nH]c2ccccc12)C(=O)N[C@@H](CCCCNC(=O)c1ccc2cc(OS(=O)(=O)O)ccc2c1)C(=O)N[C@@H](CC(=O)O)C(=O)N[C@@H](Cc1ccccc1)C(N)=O (Boc-WK(X13)DF-NH2) | 49 |
